Tested on: Peli1 transgenic mice (rtTA-Peli1)
Description: Tissues of mice were fixed using 10% neutral buffered formalin to produce paraffin blocks. Sections having a thickness of 3 μm were obtained from the paraffin blocks, and then stained with hematoxylin & eosin (H&E). In the case of immunohistochemistry, staining was performed using an anti-K14 antibody, an anti-Ki67 antibody, an anti-CD31 antibody, and an anti-CD3 antibody, followed by mounting using a mounting medium containing a DAPI reagent. Images of the stained tissue samples were acquired using an AxioCam digital microscope camera and AxioVision image processing software (Carl Zeiss).

CN(Cc1cnc2nc(N)nc(N)c2n1)c1ccc(C(=O)N[C@@H](CCC(=O)O)C(=O)O)cc1 [methotrexate]
thickness of the skin (rtTA-Peli1 mice with psoriasis phenotypes after doxycycline, intraperitoneal injection for a certain period, FIG. 8D): about half of the thickness of the skin was reduced | increase in the thickness of the skin according to the proliferation of epidermal cells (H&E staining) (rtTA-Peli1 mice, doxycycline 12 weeks, after administration of CsA or MTX, FIG. 8B): still observed | phenotypes of parakeratosis, hyperkeratosis, rete ridge, and microabscess (skin layer structure, H&E staining) (rtTA-Peli1 mice, doxycycline 12 weeks, then CsA 6 times a week or MTX 4 times a week intraperitoneally, FIG. 8B): most of the phenotypes of parakeratosis, hyperkeratosis, rete ridge, and microabscess shown in the Peli1 transgenic mice (rtTA-Peli1) disappeared | psoriasis phenotype score (rtTA-Peli1 mice, doxycycline 12 weeks, then intraperitoneal injection for a certain period, scoring per Table 1, FIG. 8C): reduced
